Experimental data reported in PMC13270519, “Cytochrome P450-Mediated Metabolism of Antimycobacterial Nα‑Aroyl‑N‑aryl-phenylalanine Amides” (ACS Infectious Diseases, 2026).

Assay: Metabolic stability in mouse liver microsomes (t1/2)
Type: in vitro ADME
Settings: NADPH, 37 °C
Protocol: Microsomal incubations were carried out in 96-well plates in 3 aliquots of 30 μL each (one for each time point). Liver microsomal incubation medium comprised phosphate buffer (100 mM, pH 7.4), MgCl2 (3 mM), NADPH (3 mM), glucose-6-phosphate (5.3 mM), and glucose-6-phosphate dehydrogenase (0.67 units/mL) with 0.42 mg of liver microsomal protein per mL. In the control reactions, the NADPH-cofactor system was substituted with phosphate buffer. Test compounds (2 μM, final solvent concentration 1.6%) were incubated with microsomes at 37 °C, shaking at 100 rpm. Three time points over 7 min were analyzed. The reactions were stopped by adding 5 volumes of methanol with internal standard to incubation aliquots followed by protein sedimentation by centrifuging at 6,000 rpm for 20 min. Each reaction was performed in duplicate. Supernatants were analyzed using the HPLC system coupled with a tandem mass spectrometer and high-resolution mass spectrometer.
The incubation was stopped after defined time points by precipitation of aliquots of enzymes with 2 volumes of cold internal standard solution (15 nM diphenhydramine in 10% methanol/acetonitrile). […] The remaining test compound at the different time points was analyzed by HPLC-MS/MS (Vanquish Flex coupled to a TSQ Altis Plus, Thermo Fisher, Dreieich, Germany) and used to determine half-life (t 1/2).

Compound | Mouse liver microsomes t1/2
O=C(N[C@H](Cc1ccccc1)C(=O)Nc1ccccc1N1CCS(=O)(=O)CC1)c1ccccc1F [AAP-SO2] | 1.8 min
O=C(N[C@H](Cc1ccccc1)C(=O)Nc1ccccc1N1CCOCC1)c1cccs1 [MMV688845] | 0.9 min
